Where “and” joins values, the source holds several entries; their conditions need not be identical. Identical values can stand only once. Like-named read-outs stand apart in the source and are kept apart here.

As a reminder, the Tm is the temperature at which the thermal transition is half complete. For orientation: Kd means the equilibrium constant for the complex coming apart. A word on the ΔTm: it is the shift of the melting midpoint relative to a reference.

Test [1] addresses T1, Athe_2574 (Anaerocellum bescii, UniProt A0ABY1S640). The test can be described thus: DSC thermal shift of Athe_2574 with ɑ-glucan substrates. The following applies: for Tm: Athe_2574 + sugar, 2.5 mg/mL protein; for Tm / ΔTm: 5 mM sugar, 50 mM HEPES, 300 mM NaCl pH 7.0; for ΔTm: |Tm,holo − Tm,apo|. It counts as binding. An excerpt:
(§1) In DSC, proteins are heated at a constant rate to induce thermal denaturation. This can be measured by an increase in the protein’s specific heat capacity Cp(T) as a function of temperature. The melting temperature Tm is defined as the temperature at which the protein attains its maximum heat capacity and becomes fully denatured ([46]). However, the presence of their cognate ligands can induce substrate-binding proteins to adopt a more thermally stable closed conformation, resulting in an increase in Tm ([47]). This ΔTm = |Tm,holo − Tm,apo| difference can be used to determine differential substrate specificity, as preferred ligands that are more tightly bound will yield larger ΔTm values. […] However, other short ɑ-glucans trehalose (ΔTm = 7.23 °C) and maltotriose (ΔTm = 6.63 °C) also yield substantial melting temperature differences. Melting temperature differences are subtler with longer oligosaccharides maltotetraose (ΔTm = 1.57 °C), maltopentaose (ΔTm = 0.95 °C), and maltoheptaose (ΔTm = 0.26 °C) (Fig. 4a). However, as binding of maltose to E. coli MBP is known to increase protein melting temperature by approximately 8 °C, depending on pH, it is unlikely binding is taking place between Athe_2310 and longer maltodextrins (G4–G7) due to their much smaller ΔTm values in comparison ([47], [48]).
(§2) DSC measurements using a MicroCal PEAQ-DSC (Malvern Panalytical) were performed on Athe_2310 and Athe_2574 in combination with a variety of ɑ-glucans: trehalose (G2), maltose (G2), maltotriose (G3), maltotetraose (G4), maltopentaose (G5), and maltoheptaose (G7). The scan rate was set to […], with a max temperature of 130 °C. Protein was mixed with each sugar, yielding final concentrations of 2.5 mg/mL of protein and 5 mM of sugar. A total of 50 mM HEPES, 300 mM NaCl, pH 7.0, was used as the reference buffer. The heat capacity Cp was plotted against temperature and then normalized by the respective run’s maximum Cp value ( Cp,max ). We defined the melting temperature Tm as the temperature corresponding to Cp,max=Cp(T=Tm) . The melting temperature difference ΔTm=|Tm,holo-Tm,apo| is defined as the absolute difference in melting temperature between the melting temperature of a protein-sugar mix and the same protein with no sugar present.

Test [2] concerns the target T2, Athe_2310 (Anaerocellum bescii, UniProt A0ABY1S743). As to the kind of experiment: DSC thermal shift of Athe_2310 with ɑ-glucan substrates. In kind it is binding. The note with it: 5 mM sugar, 50 mM HEPES, 300 mM NaCl pH 7.0; for Tm: Athe_2310 + sugar, 2.5 mg/mL protein; for ΔTm: Athe_2310, |Tm,holo − Tm,apo|.
From the text: as §1, §2
(In general: In DSC, transitions show as peaks or steps in heat flow.)

Test [3] deals with T1, Athe_2574. The test can be described thus: biochemical. It counts as binding. The note with it: ITC 25 °C; for Kd: 50 mM HEPES; for Ka: Ka=1/Kd; for n (stoichiometry): single-site binding model. Here is the method: (§3) Proteins were dialyzed into the following buffer: 50 mM HEPES, 300 mM NaCl, pH 7.0 via 10 kDa MWCO PES filter 20 mL Spin-X Concentrators (Corning). Measurements were performed at 25 °C using a MicroCal PEAQ Isothermal Titration Calorimeter (Malvern Panalytical). A standard titration experiment consisted of the protein sample at 50 µM and the sugar ligand at 500 µM. The stirring was set at 750 rpm. The 280 µL sample of protein was injected with a priming aliquot of 0.2 µL of sugar ligand, followed by 19 successive injections of 2.0 µL at 120 seconds intervals. Integrated heat effects were determined by non-linear regression using a single-site binding model (Microcal PEAQ-ITC Analysis). The fitted isotherms yield the binding dissociation constant and other thermodynamic parameters calculated using the differential form of the Gibbs Free Energy equation ΔGd=-RTln(Kd) . The slope of the binding isotherm at the equivalence point was used to determine the dissociation constant Kd . The association rate constant Ka is defined as Ka=1/Kd .

In test [4] the target is T2, Athe_2310. The test can be described thus: ITC of Athe_2310 with ɑ-glucan substrates. It counts as binding. The note with it: Athe_2310, ITC 25 °C; for Kd: 50 mM HEPES, 300 mM NaCl pH 7.0, read-out: Kd; for Ka: Ka=1/Kd; for n (stoichiometry): single-site binding model. Here is the method: as §3, with “Measurements were performed at 25 °C using a MicroCal PEAQ Isothermal Titration Calorimeter (Malvern Panalytical).” left out, “.” for “. The association rate constant Ka is defined as Ka=1/Kd .”

Test [5] has as its system Athe_2310_Mut1 (D69F G279F G278F). As to the kind of experiment: DSC screen of mutant Athe_2310_Mut1 with maltodextrins. The following applies: Fig. S5, result in words. It counts as binding, Anaerocellum bescii.
From the text: We constructed mutant variants Athe_2310_Mut1 (D69F G279F G278F) and Athe_2574_Mut1 (G253F V254F P61W N63F D64F M322A W332A) that each contain point substitutions on residues predicted to be critical for both hydrophobic and hydrophilic contacts. In other words, the mutation of these residues is predicted to confer energetic penalties sufficiently large to prevent substrate binding. […] Similarly, Athe_2574_Mut1, with seven-point mutations due to its greater number of subsites, can no longer recognize maltodextrin substrates of any length (Fig. S6).
as §2, with “The melting temperature difference ΔTm=|Tm,holo-Tm,apo| is defined as the absolute difference in melting temperature between the melting temperature of a protein-sugar mix and the same protein with no sugar present.” left out

Setting [6] is: 300 mM NaCl pH 7.0, read-out: Kd.

T2 sequence (A0ABY1S743 entry or part of it): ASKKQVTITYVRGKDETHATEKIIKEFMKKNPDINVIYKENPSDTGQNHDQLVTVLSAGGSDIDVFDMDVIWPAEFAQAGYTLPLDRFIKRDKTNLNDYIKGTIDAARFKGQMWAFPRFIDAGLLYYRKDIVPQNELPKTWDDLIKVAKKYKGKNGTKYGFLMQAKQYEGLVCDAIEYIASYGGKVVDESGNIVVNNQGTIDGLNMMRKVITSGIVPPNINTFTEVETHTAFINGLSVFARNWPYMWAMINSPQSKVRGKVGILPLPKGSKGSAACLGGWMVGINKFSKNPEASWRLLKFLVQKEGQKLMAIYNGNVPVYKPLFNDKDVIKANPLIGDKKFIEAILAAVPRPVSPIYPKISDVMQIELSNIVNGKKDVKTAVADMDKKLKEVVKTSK
T1 sequence (A0ABY1S640 entry or part of it): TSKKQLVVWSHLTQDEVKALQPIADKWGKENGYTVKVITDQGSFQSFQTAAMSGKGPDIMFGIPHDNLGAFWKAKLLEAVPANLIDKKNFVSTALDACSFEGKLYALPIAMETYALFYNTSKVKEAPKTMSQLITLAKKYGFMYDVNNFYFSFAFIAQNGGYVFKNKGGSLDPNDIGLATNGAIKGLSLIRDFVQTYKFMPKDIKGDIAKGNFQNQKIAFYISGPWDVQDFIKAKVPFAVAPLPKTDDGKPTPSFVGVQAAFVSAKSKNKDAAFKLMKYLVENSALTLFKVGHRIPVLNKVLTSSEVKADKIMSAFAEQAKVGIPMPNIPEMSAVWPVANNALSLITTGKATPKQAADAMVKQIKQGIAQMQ

Take `OC[C@H]1O[C@H](O[C@H]2[C@H](O)[C@@H](O)[C@@H](O[C@H]3[C@H](O)[C@@H](O)[C@@H](O[C@H]4[C@H](O)[C@@H](O)[C@@H](O[C@H]5[C@H](O)[C@@H](O)C(O)O[C@@H]5CO)O[C@@H]4CO)O[C@@H]3CO)O[C@@H]2CO)[C@H](O)[C@@H](O)[C@@H]1O` (stereo partly drawn) [MalG5, D-Maltopentaose]: the Tm on Athe_2574 [1] was 104.93 °C. At Athe_2574 [1] (listed as Maltopentaose), the melting temperature (Tm) was found to be 104.9 °C. Moreover, the Tm on Athe_2310 [2] is 102.73 °C. Moreover, on Athe_2310 [2] (listed as Maltopentaose), the Tm was 102.7 °C. Also, at Athe_2574 [3], the TΔS was -3.03 kcal/mol, the ΔG was -9.56 kcal/mol, the ΔH is -6.52 ± 0.07 kcal/mol and the Ka turned out to be 9.901e+06 M⁻¹. Moreover, the “n (stoichiometry)” value on Athe_2574 [3] is 0.90 ± 0.00. In addition, the Kd at Athe_2574 [3] (setting [6]) stood at 0.1 ± 0.01 µM.

As for `OC[C@H]1O[C@H](O[C@H]2O[C@H](CO)[C@@H](O)[C@H](O)[C@H]2O)[C@H](O)[C@@H](O)[C@@H]1O` [Trehalose, D-Trehalose Dihydrate], on Athe_2310 [4], the TΔS is -4.45 kcal/mol, the ΔG is -7.63 kcal/mol, the ΔH is -3.18 ± 0.14 kcal/mol and the Kd turned out to be 2.59 ± 0.5 µM. Further, at Athe_2310 [4], the Ka was 386000 M⁻¹ and the “n (stoichiometry)” value is 0.96 ± 0.02. In addition, at Athe_2574 [1], the Tm was 92.8 °C and 92.69 °C. The “binding to Athe_2574 judged from DSC melting profile” value at Athe_2574 [1] (Athe_2574, result in words) is “absence of binding”. Also, on Athe_2574 [1] (Athe_2574), the ΔTm stood at 0.1 °C. In addition, on Athe_2310 [2], the melting temperature (Tm) worked out at 109.02 °C and the ΔTm is 7.23 °C.

Regarding `OC[C@H]1O[C@H](O[C@H]2[C@H](O)[C@@H](O)[C@@H](O[C@H]3[C@H](O)[C@@H](O)[C@@H](O[C@H]4[C@H](O)[C@@H](O)[C@@H](O[C@H]5[C@H](O)[C@@H](O)[C@@H](O[C@H]6[C@H](O)[C@@H](O)[C@@H](O[C@H]7[C@H](O)[C@@H](O)C(O)O[C@@H]7CO)O[C@@H]6CO)O[C@@H]5CO)O[C@@H]4CO)O[C@@H]3CO)O[C@@H]2CO)[C@H](O)[C@@H](O)[C@@H]1O` (stereo partly drawn) [MalG7, D-Maltoheptaose], the Tm on Athe_2574 [1] stood at 105.04 °C. The Tm at Athe_2574 [1] (listed as Maltoheptaose) is 105.0 °C. In addition, the midpoint of thermal melting (Tm) on Athe_2310 [2] was 102.06 °C. Moreover, the midpoint of thermal melting (Tm) at Athe_2310 [2] (listed as Maltoheptaose) worked out at 102.1 °C. Also, on Athe_2574 [3], the TΔS was -2.69 kcal/mol, the ΔG is -9.98 kcal/mol, the ΔH was -7.29 ± 0.04 kcal/mol and the Ka was found to be 2.0492e+07 M⁻¹. The “n (stoichiometry)” value at Athe_2574 [3] is recorded as 0.82 ± 0.00. Also, the equilibrium dissociation constant (Kd) at Athe_2574 [3] (Kd, 300 mM NaCl pH 7.0) was 0.049 µM and 0.05 µM.

`OC[C@H]1O[C@H](O[C@H]2[C@H](O)[C@@H](O)[C@@H](O[C@H]3[C@H](O)[C@@H](O)[C@@H](O[C@H]4[C@H](O)[C@@H](O)C(O)O[C@@H]4CO)O[C@@H]3CO)O[C@@H]2CO)[C@H](O)[C@@H](O)[C@@H]1O` (stereo partly drawn) [MalG4, D-Maltotetraose]: the midpoint of thermal melting (Tm) on Athe_2574 [1] came to 104.26 °C. For the same molecule, the Tm at Athe_2574 [1] (listed as Maltotetraose) is 102.7 °C. For the same molecule, the midpoint of thermal melting (Tm) at Athe_2310 [2] was determined as 103.36 °C. Moreover, the Tm at Athe_2310 [2] (listed as Maltotetraose) amounted to 103.4 °C. On Athe_2574 [3], this molecule displayed a TΔS of 0.664 kcal/mol, a ΔG of -9.24 kcal/mol, a ΔH of -9.90 ± 0.19 kcal/mol and a Ka of 5.848e+06 M⁻¹. Moreover, the “n (stoichiometry)” value on Athe_2574 [3] was found to be 0.98 ± 0.01. The Kd at Athe_2574 [3] (setting [6]) came to 0.17 ± 0.04 µM.

On to `OC[C@H]1O[C@H](O[C@H]2[C@H](O)[C@@H](O)[C@@H](O[C@H]3[C@H](O)[C@@H](O)C(O)O[C@@H]3CO)O[C@@H]2CO)[C@H](O)[C@@H](O)[C@@H]1O` (stereo partly drawn) [MalG3, D-Maltotriose], for which, on Athe_2310 [4], the TΔS is -4.85 kcal/mol, the ΔG is -7.21 kcal/mol, the ΔH is -2.36 ± 0.38 kcal/mol and the Kd came to 5.21 ± 2.98 µM. Moreover, on Athe_2310 [4], the Ka is 192000 M⁻¹ and the “n (stoichiometry)” value was determined as 0.79 ± 0.06. The midpoint of thermal melting (Tm) at Athe_2574 [1] was found to be 101.47 °C. In addition, the melting temperature (Tm) at Athe_2574 [1] (listed as Maltotriose) was 101.5 °C. Besides, the thermal shift (ΔTm) at Athe_2574 [1] (Athe_2574) was 8.72 °C. Further, at Athe_2310 [2], the Tm stood at 108.42 °C and the thermal shift (ΔTm) is 6.63 °C. The Tm on Athe_2310 [2] (listed as Maltotriose) is 108.4 °C. Moreover, in test [5], the “binding to Athe_2310_Mut1” value is “can no longer bind”. On Athe_2574 [3], this molecule had a TΔS of 20.4 kcal/mol, a ΔG of -4.48 kcal/mol, a ΔH of -24.80 ± 2410 kcal/mol and a Ka of 1900 M⁻¹. In addition, on Athe_2574 [3], the “n (stoichiometry)” value is recorded as 1.57 ± 85.80. Besides, the Kd on Athe_2574 [3] (setting [6]) was 523 µM.

The values above are taken from paper PMC12096829, “Maltodextrin transport in the extremely thermophilic, lignocellulose degrading bacterium Anaerocellum bescii (f. Caldicellulosiruptor bescii)” (Journal of Bacteriology, 2025).
